Where two headings read alike, the source gives them in different places.
How the values were obtained:
[1] = Caco2 permeability (bi-directional); format: in vitro ADME, human; settings: human, pH 7.4; for Papp A→B at 1 h, 10 µM: Caco-2, apical to basolateral, read-out: Papp (A2B); for efflux ratio at 1 h, 10 µM: Caco-2, ratio of PappB>A/PappA>B
Summary of the method: (§1)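 Bidirectional transport across Caco-2 monolayers was run for 1 h at 37 °C with shaking, with 50 μM Lucifer Yellow in the donor to check monolayer integrity (acceptance ≤100 nm/s). Apical and basal compound levels were measured by LC-MS/MS, and efflux ratio was taken as PappB>A/PappA>B.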

TNF-alpha release = assay: Septic shock model (LPS-induced TNF release); format: in vivo, mouse; settings: 30 mg/kg po, BALB/cJ mice, LPS ip; statistically significant
Protocol: Injection of lipopolysaccharide (LPS) induces a rapid release of soluble tumour necrosis factor (TNF-alpha) into the periphery. This model is used to analyse prospective blockers of TNF release in vivo.
Six BALB/cJ female mice (20 g) per group were treated at the intended dosing once, po. Thirty minutes later, LPS (15 μg/kg; E. Coli serotype 0111:B4) was injected ip. Ninety minutes later, mice were euthanized and blood was collected. Circulating TNF alpha levels were determined using commercially available ELISA kits. Dexamethasone (5 μg/kg) was used as a reference anti-inflammatory compound. Selected compounds are tested at one or multiple doses, e.g. 3 and/or 10 and/or 30 mg/kg, po.

[2] = Microsomal stability, human liver microsomes; format: in vitro ADME; settings: percentage of compound remaining after 60 minutes, 3 μM compound
Summary of the method: (§2)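 Compound was incubated with liver microsomes plus an NADP+/glucose-6-phosphate/G6PDH/MgCl2 regenerating system at 37°C for 1 h. Reactions were stopped 1:1 with MeOH or ACN and analysed by LCMS.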

[3] = biological target: Recombinant human JAK1 catalytic domain (Homo sapiens (Human), UniProt P23458); assay: JAK1 inhibition assay; format: biochemical; settings: semi-quantitative score
Recombinant human JAK1 catalytic domain, sequence (P23458 850-1154): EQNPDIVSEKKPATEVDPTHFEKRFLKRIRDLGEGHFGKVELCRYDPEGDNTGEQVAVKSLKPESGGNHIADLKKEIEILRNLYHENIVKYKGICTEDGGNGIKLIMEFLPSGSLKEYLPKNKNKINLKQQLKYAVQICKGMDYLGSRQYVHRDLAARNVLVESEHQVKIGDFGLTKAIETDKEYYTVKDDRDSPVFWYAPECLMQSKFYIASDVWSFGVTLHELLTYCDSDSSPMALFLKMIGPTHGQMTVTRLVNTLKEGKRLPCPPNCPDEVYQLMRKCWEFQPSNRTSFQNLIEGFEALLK
Summary of the method: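 Radiometric assay read by scintillation counting after phosphoric-acid washes. Percent inhibition calculated from cpm relative to vehicle and 10 μM staurosporine control. IC50 derived from compound dose-dilution series.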

[4] = Microsomal stability, rat liver microsomes; format: in vitro ADME; settings: percentage of compound remaining after 60 minutes, 3 μM compound
Summary of the method: as §2

[5] = biological target: Recombinant human JAK2 catalytic domain (Homo sapiens (Human), UniProt O60674); assay: JAK2 inhibition assay; format: biochemical; settings: semi-quantitative score
Recombinant human JAK2 catalytic domain, sequence (O60674 808-1132): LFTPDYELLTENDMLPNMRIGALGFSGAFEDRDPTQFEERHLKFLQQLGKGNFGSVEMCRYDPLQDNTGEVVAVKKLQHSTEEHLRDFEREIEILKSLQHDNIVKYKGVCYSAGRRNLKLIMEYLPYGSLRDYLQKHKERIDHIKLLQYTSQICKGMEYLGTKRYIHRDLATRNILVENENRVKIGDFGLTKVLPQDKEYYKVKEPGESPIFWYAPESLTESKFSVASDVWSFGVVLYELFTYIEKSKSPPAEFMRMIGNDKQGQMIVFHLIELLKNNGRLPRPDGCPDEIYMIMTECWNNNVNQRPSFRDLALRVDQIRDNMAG
Summary of the method: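 Radiometric kinase reactions ran for 90 min at 30 °C and were stopped with phosphoric acid, then washed and counted by scintillation. Percent inhibition was set relative to vehicle and to 10 μM staurosporine background. IC50 was derived from dose-dilution series.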

MMP13 in SW1353 cells = assay: OSM/IL-1β signaling assay (MMP13 levels in SW1353 cells); format: cell-based; settings: Homo sapiens, read-out: MMP13 EC50;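 note: secreted MMP13 captured by antibody, activated with APMA and its activity read by fluorescence, inhibition scaled between vehicle-treated triggered wells (0%) and untriggered wells (100%)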
[6] = biological target: Recombinant human JAK3 catalytic domain (Homo sapiens (Human), UniProt P52333); assay: JAK3 inhibition assay; format: biochemical; settings: semi-quantitative score
Recombinant human JAK3 catalytic domain, sequence (P52333 781-1124): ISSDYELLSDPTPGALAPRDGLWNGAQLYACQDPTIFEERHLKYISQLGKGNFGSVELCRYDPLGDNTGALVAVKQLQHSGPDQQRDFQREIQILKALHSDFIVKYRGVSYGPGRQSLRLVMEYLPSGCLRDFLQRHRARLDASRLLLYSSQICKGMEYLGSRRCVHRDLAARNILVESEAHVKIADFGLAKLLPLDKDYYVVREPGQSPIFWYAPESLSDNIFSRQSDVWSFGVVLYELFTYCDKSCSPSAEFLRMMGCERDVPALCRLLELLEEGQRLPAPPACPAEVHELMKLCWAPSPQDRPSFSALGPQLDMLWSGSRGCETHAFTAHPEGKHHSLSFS

[7] = system: JAK-STAT signalling in HeLa cells; assay: JAK-STAT signalling assay (OSM-triggered pSTAT1(2)-luciferase reporter in HeLa cells); format: cell-based; settings: Homo sapiens, read-out: STAT signalling EC50
Summary of the method: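 HeLa cells transiently transfected with pSTAT1(2)-luciferase reporter plus LacZ internal control, incubated overnight at 37 °C, 10% CO2, then OSM-stimulated with compound. Luciferase read by Steadylite luminescence and normalised to β-galactosidase (ONPG); percent inhibition from controls, EC50 from dose-response.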

[8] = biological target: Recombinant human TYK2 catalytic domain (Homo sapiens (Human), UniProt P29597); assay: TYK2 inhibition assay; format: biochemical; settings: semi-quantitative score
Recombinant human TYK2 catalytic domain, sequence (P29597 871-1187): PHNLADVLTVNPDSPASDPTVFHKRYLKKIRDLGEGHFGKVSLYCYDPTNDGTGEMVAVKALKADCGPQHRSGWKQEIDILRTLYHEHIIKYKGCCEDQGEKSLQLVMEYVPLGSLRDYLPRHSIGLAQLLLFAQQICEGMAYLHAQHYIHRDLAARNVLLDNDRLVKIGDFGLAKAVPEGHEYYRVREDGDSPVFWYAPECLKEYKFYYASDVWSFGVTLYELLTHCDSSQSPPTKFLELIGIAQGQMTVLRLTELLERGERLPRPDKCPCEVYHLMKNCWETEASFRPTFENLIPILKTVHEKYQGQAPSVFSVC
Summary of the method: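 Recombinant human TYK2 catalytic domain; radiometric kinase reaction run 90 min at 30° C, stopped with phosphoric acid, washed and counted by scintillation.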

[9] = system: Collagen Induced Arthritis (CIA); assay: Rat CIA model; format: in vivo; settings: therapeutic dosing day 16 to day 30, p.o., statistical significance in several of the readouts
Protocol: Completed Freund's adjuvant (CFA) and incomplete Freund's adjuvant (IFA) were purchased from Difco. Bovine collagen type II (CII), lipopolysaccharide (LPS), and Enbrel were obtained from Chondrex (Isle d'Abeau, France); Sigma (P4252, L'Isle d'Abeau, France), Whyett (25 mg injectable syringe, France) Acros Organics (Palo Alto, Calif.), respectively. All other reagents used were of reagent grade and all solvents were of analytical grade.
Dark Agouti rats (male, 7-8 weeks old) were obtained from Harlan Laboratories (Maison-Alfort, France). Rats were kept on a 12 hours light/dark cycle (0700-1900). The temperature was maintained at 22° C., and food and water were provided ad libitum.
One day before the experiment, CII solution (2 mg/mL) was prepared with 0.05 M acetic acid and stored at 4° C. Just before the immunization, equal volumes of adjuvant (IFA) and CII were mixed by a homogenizer in a pre-cooled glass bottle in an ice water bath. Extra adjuvant and prolonged homogenization might be required if an emulsion is not formed. 0.2 mL of the emulsion was injected intradermally at the base of the tail of each rat on day 1, a second booster intradermal injection (CII solution at 2 mg/mL in CFA 0.1 mL saline) was performed on day 9. This immunization method was modified from published methods (Sims N A et al., (2004) Targeting osteoclasts with zoledronic acid prevents bone destruction in collagen-induced arthritis, Arthritis Rheum. 50 2338-2346; Jou et al., 2005).
The therapeutic effects of the test compounds were tested in the rat CIA model. Rats were randomly divided into equal groups and each group contained 10 rats. All rats were immunized on day 1 and boosted on day 9. Therapeutic dosing lasted from day 16 to day 30. The negative control group was treated with vehicle (MC 0.5%) and the positive control group with Enbrel (10 mg/kg, 3× week, s.c.). A compound of interest was typically tested at 3 doses, e.g. 3, 10, 30 mg/kg, p.o.
Arthritis was scored according the method of Khachigian 2006, Lin et al 2007 and Nishida et al. 2004. The swelling of each of the four paws was ranked with the arthritic score as follows: 0-no symptoms; 1-mild, but definite redness and swelling of one type of joint such as the ankle or wrist, or apparent redness and swelling limited to individual digits, regardless of the number of affected digits; 2-moderate redness and swelling of two or more types of joints; 3-severe redness and swelling of the entire paw including digits; 4-maximally inflamed limb with involvement of multiple joints (maximum cumulative clinical arthritis score 16 per animal) (Nishida et al., 2004).
Clinically, body weight loss is associated with arthritis (Shelton et al., 2005; Argiles et al., 1998; Rall, 2004; Walsmith et al., 2004). […] The change in body weight (%) after onset of arthritis was calculated as follows: […]
X-ray photos were taken of the hind paws of each individual animal. A random blind identity number was assigned to each of the photos, and the severity of bone erosion was ranked by two independent scorers with the radiological Larsen's score system as follows: 0-normal with intact bony outlines and normal joint space; 1—slight abnormality with any one or two of the exterior metatarsal bones showing slight bone erosion; 2—definite early abnormality with any three to five of the exterior metatarsal bones showing bone erosion; 3—medium destructive abnormality with all the exterior metatarsal bones as well as any one or two of the interior metatarsal bones showing definite bone erosions; 4—severe destructive abnormality with all the metatarsal bones showing definite bone erosion and at least one of the inner metatarsal joints completely eroded leaving some bony joint outlines partly preserved; 5—mutilating abnormality without bony outlines. This scoring system is a modification from Salvcmini et al., 2001; Bush et al., 2002; Sims et al., 2004; Jou et al., 2005. […]

Caco-2 cells = assay: Caco2 permeability (bi-directional); format: in vitro ADME, human; settings: Caco-2, apical to basolateral
Summary of the method: as §1

[10] = SW1353 cells, OSM and IL-1β triggered, MMP13 levels 48 hours after triggering
[11] = HeLa cells, OSM-triggered pSTAT1(2)-luciferase reporter

SMILES | Papp A→B at 1 h, 10 µM [1] [×10⁻⁶ cm/s] | efflux ratio at 1 h, 10 µM [1] | reduction in the TNF release (TNF-alpha release) [%] | Microsomal Stability Human (%) [2] | IC50 [3] [nM] | Microsomal Stability Rat (%) [4] | IC50 [5] [nM] | EC50 (MMP13 in SW1353 cells; [10]) [nM] | IC50 [6] [nM] | EC50 [7, 11] [nM] | IC50 [8] [nM] | efficacy in all readouts of the rat CIA study [9] | EC50 (MMP13 in SW1353 cells; SW1353, 48 h) [nM] | EC50 ([7]; HeLa) [nM] | Papp (A2B) (Caco-2 cells)
O=C(Nc1nc2cccc(-c3ccc(OCc4ccccc4)cc3)n2n1)C1CC1 [Compound 12, N-(5-(4-(benzyloxy)phenyl)-[1,2,4]triazolo[1,5-a]pyridin-2-yl)cyclopropanecarboxamide] | 23.4 | 0.82 | > 50 | *** (*** 51-75) | < 100 | **** (**** 76-100) | < 100 | > 1000 | < 100 | 101 to 500 | – | – | – | – | –
Cc1cc(COc2ccc(-c3cccc4nc(NC(=O)C5CC5)nn34)cc2)no1 [Compound 52, N-(5-(4-((5-methylisoxazol-3-yl)methoxy)phenyl)-[1,2,4]triazolo[1,5-a]pyridin-2-yl)cyclopropanecarboxamide] | 31.8 | 1.02 | > 50 | * (* 0-25) | < 100 | * (* 0-25) | < 100 | > 1000 | 501 to 1000 | 501 to 1000 | 501 to 1000 | – | – | – | –
O=C(NCCOc1ccccc1)c1ccc(-c2cccc3nc(NC(=O)C4CC4)nn23)cc1 [Compound 60, 4-(2-(cyclopropanecarboxamido)-[1,2,4]triazolo[1,5-a]pyridin-5-yl)-N-(2-phenoxyethyl)benzamide] | 16.9 | 2.55 | > 50 | ** (** 26-50) | < 100 | * (* 0-25) | < 100 | 501 to 1000 | 101 to 500 | 101 to 500 | 501 to 1000 | – | – | – | –
O=C(Nc1nc2cccc(-c3ccc(C(=O)N4CCC(C(=O)c5ccccc5)CC4)cc3)n2n1)C1CC1 [Compound 74, N-(5-(4-(4-benzoylpiperidine-1-carbonyl)phenyl)-[1,2,4]triazolo[1,5-a]pyridin-2-yl)cyclopropanecarboxamide] | 23.3 | 1.14 | > 50 | * (* 0-25) | < 100 | **** (**** 76-100) | 101 to 500 | > 1000 | > 1000 | > 1000 | – | – | – | – | –
O=C(Nc1nc2cccc(-c3ccc(OCc4ccc(-n5cccn5)cc4)cc3)n2n1)C1CC1 [Compound 125] | – | – | > 50 | *** (*** 51-75) | < 100 | **** (**** 76-100) | – | > 1000 | < 100 | > 1000 | – | – | – | – | –
O=C(Nc1nc2cccc(-c3ccc(CN4CCS(=O)(=O)CC4)cc3)n2n1)C1CC1 [Compound 200, Cyclopropanecarboxylic acid {5-[4-(1,1-dioxo-thiomorpholin-4-ylmethyl)-phenyl]-[1,2,4]triazolo[1,5-a]pyridin-2-yl}-amide] | 4.65 | – | > 50 | **** (**** 76-100) | – | *** (*** 51-75) | – | – | – | – | – | efficacious in all readouts | > 1000 | 501 to 1000 | –
N#CC1CN(C(=O)c2ccc(-c3cccc4nc(NC(=O)C5CC5)nn34)cc2)C1 [Compound 328, Cyclopropanecarboxylic acid {5-[4-(3-cyano-azetidine-1-carbonyl)-phenyl]-[1,2,4]triazolo[1,5-a]pyridin-2-yl)-amide] | – | – | – | – | – | – | – | > 1000 | – | 501 to 1000 | – | – | – | – | 0.2! cmx10-6sec-1

Source: patent US10206907B2, “Compounds useful for the treatment of degenerative and inflammatory diseases” (GALAPAGOS NV, priority 2008, dated 2019)
